Results taken from patent publication US10173991B2, “Sulfone amide linked benzothiazole inhibitors of endothelial lipase” (BRISTOL-MYERS SQUIBB COMPANY, priority 2014, dated 2019).

biological target: Endothelial lipase (EL) (Homo sapiens (Human), UniProt Q9Y5X9); assay: Endothelial lipase (EL) enzymatic assay with fluorescent substrate A10070 in DMPG vesicles; assay type: biochemical
Procedure, shortened: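 Vesicles prepared: A10070 dried with DMPG, resuspended in HEPES pH 8.0/NaCl/EDTA, sonicated on ice. Enzyme incubated with compound 30 min at 37° C. Reaction started with 1:10 diluted vesicles. Fluorescence (490/530 nm) followed 60 min; slope from 300–900 secs gives rate.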

Endothelial lipase (EL), sequence (Q9Y5X9 21-500): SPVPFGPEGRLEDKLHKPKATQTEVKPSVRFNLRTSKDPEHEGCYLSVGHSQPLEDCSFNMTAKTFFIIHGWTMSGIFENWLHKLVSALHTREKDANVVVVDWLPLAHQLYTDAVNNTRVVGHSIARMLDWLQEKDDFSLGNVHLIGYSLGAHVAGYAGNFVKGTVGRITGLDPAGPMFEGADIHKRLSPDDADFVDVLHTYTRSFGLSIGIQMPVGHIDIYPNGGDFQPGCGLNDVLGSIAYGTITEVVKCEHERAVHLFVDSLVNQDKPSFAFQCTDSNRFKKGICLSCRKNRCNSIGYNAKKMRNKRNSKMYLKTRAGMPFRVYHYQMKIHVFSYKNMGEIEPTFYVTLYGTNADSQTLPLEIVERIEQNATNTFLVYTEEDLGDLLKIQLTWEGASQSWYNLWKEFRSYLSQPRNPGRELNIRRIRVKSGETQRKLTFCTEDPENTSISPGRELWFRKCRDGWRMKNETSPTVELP

| IC50 [nM] | Compound |
| --- | --- |
| 35 | COCCS(=O)(=O)C(C(=O)NCC(=O)NC1CC1)c1nc2cc(F)c(-c3ccc4c(c3)OCC(=O)N4)cc2s1 (centres unmarked) [Example 417, N-[(cyclopropyl-carbamoyl)methyl]-2-[5-fluoro-6-(3-oxo-3,4-dihydro-2H-1,4-benzoxazin-7-yl)-1,3-benzothiazol-2-yl]-2-(2-methoxyethane-sulfonyl)acetamide] |
| 8 | CC(C)c1ccc(-c2cc3sc(C(C(=O)NCC(=O)NC4CC4)S(=O)(=O)C(C)C)nc3cc2F)cn1 (centres unmarked) [Example 251, N-[(cyclopropyl-carbamoyl)methyl]-2-{5-fluoro-6-[6-(propan-2-yl)pyridin-3-yl]-1,3-benzothiazol-2-yl}-2-(propane-2-sulfonyl) acetamide] |
| 4 | CC(C)(O)CNC(=O)c1ccc(-c2ccc3nc(C(C(=O)NCC(=O)NC4CC4)S(C)(=O)=O)sc3c2)cc1 (centres unmarked) [Example 567, 4-[2-({[(cyclopropyl-carbamoyl)methyl]carbamoyl} (methanesulfonyl)methyl)-1,3-benzothiazol-6-yl]-N-(2-hydroxy-2-methylpropyl) benzamide] |
| 11 | COCCS(=O)(=O)C(C(=O)NCC(=O)NC1CC1)c1nc2c(F)cc(-c3ccc(C(=O)N4CCOCC4)cc3)cc2s1 (centres unmarked) [Example 208, N-[(cyclopropyl-carbamoyl)methyl]-2-{4-fluoro-6-[4-(morpholine-4-carbonyl)phenyl]-1,3-benzothiazol-2-yl}-2-(2-methoxyethane-sulfonyl) acetamide] |
| 13 | O=C(CNC(=O)C(c1nc2cc(-c3ccc(F)nc3)ccc2s1)S(=O)(=O)c1ccccc1)NC1CC1 (centres unmarked) [Example 437, 2-(benzenesulfonyl)-N-[(cyclopropyl-carbamoyl)methyl]-2-[5-(6-fluoropyridin-3-yl)-1,3-benzothiazol-2-yl] acetamide] |
| 58 | COCCS(=O)(=O)C(C(=O)NCC(=O)NC1CC1)c1nc2cc(-c3cnc(F)cc3C)ccc2s1 (centres unmarked) [Example 81, N-[(cyclopropyl-carbamoyl)methyl]-2-[5-(6-fluoro-4-methylpyridin-3-yl)-1,3-benzothiazol-2-yl]-2-(2-methoxyethane-sulfonyl) acetamide] |
| 44 | CN(C)S(=O)(=O)C(C(=O)NCC(=O)NC1CC1)c1nc2c(F)cc(-c3ccc4cnn(C)c4c3)cc2s1 (centres unmarked) [Example 494, N-[(cyclopropyl-carbamoyl)methyl]-2-(dimethyl-sulfamoyl)-2-[4-fluoro-6-(1-methyl-1H-indazol-6-yl)-1,3-benzothiazol-2-yl] acetamide] |
| 87 | O=C(CNC(=O)C(c1nc2cc(F)c(-c3cncnc3)cc2s1)S(=O)(=O)c1ccccc1F)NC1CC1 (centres unmarked) [Example 441, N-[(cyclopropyl-carbamoyl)methyl]-2-[5-fluoro-6-(pyrimidin-5-yl)-1,3-benzothiazol-2-yl]-2-(2-fluorobenzene-sulfonyl)acetamide] |
| 27 | COCCS(=O)(=O)C(C(=O)NCC(=O)NC1CC1)c1nc2cc(F)c(-c3ccc(F)nc3)cc2s1 (centres unmarked) [Example 171, N-[(cyclopropyl-carbamoyl)methyl]-2-[5-fluoro-6-(6-fluoropyridin-3-yl)-1,3-benzothiazol-2-yl]-2-(2-methoxyethane-sulfonyl) acetamide] |
| 37 | COCCS(=O)(=O)C(C(=O)NCC(=O)NC1CC1)c1nc2cc(C(F)(F)F)c(-c3ccc(=O)n(C(C)C)c3)cc2s1 (centres unmarked) [Example 188, N-[(cyclopropyl-carbamoyl)methyl]-2-(2-methoxyethane-sulfonyl)-2-{6-[6-oxo-1-(propan-2-yl)-1,6-dihydropyridin-3-yl]-5-(trifluoromethyl)-1,3-benzothiazol-2-yl}acetamide] |
| 11 | COCCS(=O)(=O)C(C(=O)NCC(=O)NC1CC1)c1nc2cc(-c3cncc(OC)c3)ccc2s1 (centres unmarked) [Example 64, N-[(cyclopropyl-carbamoyl)methyl]-2-(2-methoxyethane-sulfonyl)-2-[5-(5-methoxypyridin-3-yl)-1,3-benzothiazol-2-yl]acetamide] |
| 13 | CS(=O)(=O)C(C(=O)NCC(=O)NC1CC1)c1nc2cc(-c3ccc(F)nc3)ccc2s1 (centres unmarked) [Example 333, N-[(cyclopropyl-carbamoyl)methyl]-2-[5-(6-fluoropyridin-3-yl)-1,3-benzothiazol-2-yl]-2-methanesulfonyl-acetamide] |
| 215 | COCCS(=O)(=O)C(C(=O)NCC(=O)NC1CC1)c1nc2cc(-c3ccccc3)ccc2s1 (centres unmarked) [Example 339, N-[(cyclopropyl-carbamoyl)methyl]-2-(2-methoxyethane-sulfonyl)-2-(5-phenyl-1,3-benzothiazol-2-yl)acetamide] |
| 61 | O=C(CNC(=O)C(c1nc2ccc(-c3cncnc3)cc2s1)S(=O)(=O)c1ccccc1)NC1CC1 (centres unmarked) [Example 432, 2-(benzenesulfonyl)-N-[(cyclopropyl-carbamoyl)methyl]-2-[6-(pyrimidin-5-yl)-1,3-benzothiazol-2-yl]acetamide] |
| 38 | COCCS(=O)(=O)C(C(=O)NCC(=O)NC1CC1)c1nc2cc(-c3cccc(C(=O)N(C)C)c3)ccc2s1 (centres unmarked) [Example 398, 3-[2-({[(cyclopropyl-carbamoyl)methyl]carbamoyl}(2-methoxyethane-sulfonyl)methyl)-1,3-benzothiazol-5-yl]-N,N-dimethyl-benzamide] |
| 5 | COCCS(=O)(=O)C(C(=O)NCC(=O)NC1CC1)c1nc2cc(-c3cncc(Cl)c3)ccc2s1 (centres unmarked) [Example 62] |
| 37 | CC(C)S(=O)(=O)C(C(=O)NCC(=O)NC1CC1)c1nc2cc(C(F)(F)F)c(-c3cccc(C(=O)N(C)C)c3)cc2s1 (centres unmarked) [Example 175, 3-[2-({[(cyclopropyl-carbamoyl)methyl]carbamoyl} (propane-2-sulfonyl)methyl)-5-(trifluoromethyl)-1,3-benzothiazol-6-yl]-N,N-dimethyl-benzamide] |
| 24 | COCCS(=O)(=O)C(C(=O)NCC(=O)NC1CC1)c1nc2cc(-c3ccnc(C)c3)ccc2s1 (centres unmarked) [Example 70, N-[(cyclopropyl-carbamoyl)methyl]-2-(2-methoxyethane-sulfonyl)-2-[5-(2-methylpyridin-4-yl)-1,3-benzothiazol-2-yl]acetamide] |
| 12 | COCCNC(=O)c1cccc(-c2cc3sc(C(C(=O)NCC(=O)NC4CC4)S(=O)(=O)C(C)C)nc3cc2C)c1 (centres unmarked) [Example 210, 3-[2-({[(cyclopropyl-carbamoyl)methyl]carbamoyl} (propane-2-sulfonyl)methyl)-5-methyl-1,3-benzothiazol-6-yl]-N-(2-methoxyethyl) benzamide] |
| 19 | Cc1cc2nc(C(C(=O)NCC(=O)NC3CC3)S(=O)(=O)C(C)C)sc2cc1-c1ccc(C(=O)N(C)C)cc1 (centres unmarked) [Example 215, 4-[2-({[(cyclopropyl-carbamoyl)methyl]carbamoyl} (propane-2-sulfonyl)methyl)-5-methyl-1,3-benzothiazol-6-yl]-N,N-dimethyl-benzamide] |
| 171 | COCCS(=O)(=O)C(C(=O)NCC(=O)NC1CC1)c1nc2cc(-c3cccc(F)n3)ccc2s1 (centres unmarked) [Example 89, N-[(cyclopropyl-carbamoyl)methyl]-2-[5-(6-fluoropyridin-2-yl)-1,3-benzothiazol-2-yl]-2-(2-methoxyethane-sulfonyl) acetamide] |
| 25 | COCCS(=O)(=O)C(C(=O)NCC(=O)NC1CC1)c1nc2cc(-c3ccc(Cl)nc3)ccc2s1 (centres unmarked) [Example 72, 2-[5-(6-chloropyridin-3-yl)-1,3-benzothiazol-2-yl]-N-[(cyclopropyl-carbamoyl)methyl]-2-(2-methoxyethane-sulfonyl) acetamide] |
| 3 | COCCS(=O)(=O)C(C(=O)NCC(=O)NC1CC1)c1nc2cc(F)c(-c3ccc(-c4ccno4)cc3)cc2s1 (centres unmarked) [Example 145, N-[(cyclopropyl-carbamoyl)methyl]-2-{5-fluoro-6-[4-(1,2-oxazol-5-yl)phenyl]-1,3-benzothiazol-2-yl}-2-(2-methoxyethane-sulfonyl) acetamide] |
| 21 | CC(C)OCCNC(=O)CNC(=O)C(c1nc2cc(-c3ccc(F)nc3)c(F)cc2s1)S(C)(=O)=O (centres unmarked) [Example 360, 2-[6-fluoro-5-(6-fluoropyridin-3-yl)-1,3-benzothiazol-2-yl]-2-methanesulfonyl-N-({[2-(propan-2-yloxy)ethyl]carbamoyl}methyl)acetamide] |
| 6 | O=C(CNC(=O)C(c1nc2cc(F)c(-c3ccc(NC(=O)OCc4nccs4)cc3)cc2s1)S(=O)(=O)CCC(F)(F)F)NC1CC1 (centres unmarked) [Example 523, 1,3-thiazol-2-ylmethyl N-{4-[2-({[(cyclopropyl-carbamoyl)methyl]carbamoyl}(3,3,3-trifluoropropane-sulfonyl)methyl)-5-fluoro-1,3-benzothiazol-6-yl]phenyl} carbamate] |
| 1 | CS(=O)(=O)C(C(=O)NCC(=O)NC1CC1)c1nc2cc(-c3ccc(NC(=O)OCc4ccccc4)cc3)c(F)cc2s1 (centres unmarked) [Example 8, benzyl N-{4-[2-({[(cyclopropyl-carbamoyl)methyl]carbamoyl} (methane-sulfonyl)methyl)-6-fluoro-1,3-benzothiazol-5-yl]phenyl} carbamate] |
| 3 | CCS(=O)(=O)C(C(=O)NCC(=O)NC1CC1)c1nc2cc(F)c(-c3ccc(NC(=O)OCc4ccccc4)cc3)cc2s1 (centres unmarked) [Example 45, benzyl N-{4-[2-({[(cyclopropyl-carbamoyl)methyl]carbamoyl} (ethanesulfonyl)methyl)-5-fluoro-1,3-benzothiazol-6-yl]phenyl} carbamate] |
| 15 | COCCS(=O)(=O)C(C(=O)NCC(=O)NC1CC1)c1nc2ccc(-c3ccc(F)cc3)cc2s1 (centres unmarked) [Example 307, N-[(cyclopropyl-carbamoyl)methyl]-2-[6-(4-fluorophenyl)-1,3-benzothiazol-2-yl]-2-(2-methoxyethane-sulfonyl)acetamide] |

| Compound | IC50 [nM] |
| --- | --- |
| CC(C)OC(=O)Nc1ccc(-c2cc3sc(C(C(=O)NCC(=O)NC4CC4)S(=O)(=O)C(C)C)nc3cc2F)cc1 (centres unmarked) [Example 541, propan-2-yl N-{4-[2-({[(cyclopropyl-carbamoyl)methyl]carbamoyl} (propane-2-sulfonyl)methyl)-5-fluoro-1,3-benzothiazol-6-yl]phenyl} carbamate] | 2 |
